Experimental data published in ChEMBL document CHEMBL1201862, “PubChem BioAssay data set” (2004).
Activity calls are given as the source filed them. Rule as the data show it: actives have a measured IC50 and inactives only a lower limit.

Biological target: Envelope glycoprotein gp160 (Human immunodeficiency virus 1, UniProt Q6QLK5)
Assay: cell-free HIV fusion peptide-binding blockers – biochemical, uHTS, fluorescence dequenching, […] (AID 1986)

Sequence of Envelope glycoprotein gp160 (Q6QLK5 whole entry, the tested form may be a part): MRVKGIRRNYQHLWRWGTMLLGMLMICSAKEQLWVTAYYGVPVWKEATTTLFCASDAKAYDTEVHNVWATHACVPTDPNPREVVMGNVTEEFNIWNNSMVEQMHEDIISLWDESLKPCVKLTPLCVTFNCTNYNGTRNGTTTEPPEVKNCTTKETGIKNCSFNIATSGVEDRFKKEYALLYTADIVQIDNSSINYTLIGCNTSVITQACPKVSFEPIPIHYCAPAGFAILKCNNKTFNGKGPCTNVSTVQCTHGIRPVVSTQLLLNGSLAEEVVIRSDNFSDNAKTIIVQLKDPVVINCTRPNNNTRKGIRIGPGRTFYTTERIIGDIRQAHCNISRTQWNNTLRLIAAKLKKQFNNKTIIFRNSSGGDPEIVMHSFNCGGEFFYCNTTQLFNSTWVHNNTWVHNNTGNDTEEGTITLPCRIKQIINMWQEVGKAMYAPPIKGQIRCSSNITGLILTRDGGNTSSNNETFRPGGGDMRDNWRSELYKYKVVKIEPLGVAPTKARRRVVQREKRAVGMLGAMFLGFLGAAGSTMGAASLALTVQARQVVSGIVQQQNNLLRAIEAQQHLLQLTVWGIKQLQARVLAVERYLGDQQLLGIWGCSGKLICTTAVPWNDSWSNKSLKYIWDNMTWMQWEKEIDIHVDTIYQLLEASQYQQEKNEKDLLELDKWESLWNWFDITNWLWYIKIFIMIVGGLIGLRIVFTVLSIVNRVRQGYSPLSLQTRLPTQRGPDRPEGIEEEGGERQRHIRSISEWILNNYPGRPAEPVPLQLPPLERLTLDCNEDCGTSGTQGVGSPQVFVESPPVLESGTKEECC

COc1ccc(NS(=O)(=O)c2ccc3c(c2)[C@H]2C=CC[C@H]2[C@@H](c2ccc(C(=O)O)cc2)N3)cc1
IC50: 8.25 µM (active)

CC(C)S(=O)(=O)C1=NSC2=NC(=O)/C(=C\c3ccc(-c4ccccc4)o3)C(=N)N21
IC50: 8.73 µM (active)

O=C1/C(=C\c2ccc(O)c(O)c2)C(c2ccccc2)=NN1c1ccccc1
IC50: 17.6 µM (active)
